Assay results published in ChEMBL document CHEMBL1201862, “PubChem BioAssay data set” (2004).
Values joined by “and” are separate entries in the source; they are usually repeats but may differ in a detail not shown here. Equal values may be shown once. Active and inactive are the calls of the source.

How the values were obtained:
[1] = target: T1, Cytochrome P450 1A2 (Homo sapiens, UniProt P05177);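 further: PubChem cytochrome P450 panel assay, CYP1A2 panel member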
T1 sequence (P05177 whole entry): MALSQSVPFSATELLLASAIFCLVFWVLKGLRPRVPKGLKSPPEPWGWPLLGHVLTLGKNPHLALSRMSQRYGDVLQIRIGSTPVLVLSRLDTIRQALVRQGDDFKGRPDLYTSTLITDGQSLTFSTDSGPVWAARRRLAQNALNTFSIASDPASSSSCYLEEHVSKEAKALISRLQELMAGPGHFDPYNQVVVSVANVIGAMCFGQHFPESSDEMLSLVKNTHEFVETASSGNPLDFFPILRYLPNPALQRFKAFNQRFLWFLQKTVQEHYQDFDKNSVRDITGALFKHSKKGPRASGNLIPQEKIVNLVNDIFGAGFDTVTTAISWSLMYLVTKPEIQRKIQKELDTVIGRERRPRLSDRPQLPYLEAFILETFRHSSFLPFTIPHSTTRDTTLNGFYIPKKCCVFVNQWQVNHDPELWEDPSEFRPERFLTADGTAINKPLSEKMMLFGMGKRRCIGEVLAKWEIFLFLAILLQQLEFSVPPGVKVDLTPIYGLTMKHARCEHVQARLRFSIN

[2] = target: T2, Corticotropin-releasing factor receptor 2/Corticotropin-releasing factor-binding protein (Homo sapiens, UniProt P24387+Q13324); test: activators of CRF receptor 2 with binding protein – uHTS hits, confirmation (AID 602473); assay type: functional; settings: read-out: EC50_Mean
T2 sequence (Q13324 whole entry): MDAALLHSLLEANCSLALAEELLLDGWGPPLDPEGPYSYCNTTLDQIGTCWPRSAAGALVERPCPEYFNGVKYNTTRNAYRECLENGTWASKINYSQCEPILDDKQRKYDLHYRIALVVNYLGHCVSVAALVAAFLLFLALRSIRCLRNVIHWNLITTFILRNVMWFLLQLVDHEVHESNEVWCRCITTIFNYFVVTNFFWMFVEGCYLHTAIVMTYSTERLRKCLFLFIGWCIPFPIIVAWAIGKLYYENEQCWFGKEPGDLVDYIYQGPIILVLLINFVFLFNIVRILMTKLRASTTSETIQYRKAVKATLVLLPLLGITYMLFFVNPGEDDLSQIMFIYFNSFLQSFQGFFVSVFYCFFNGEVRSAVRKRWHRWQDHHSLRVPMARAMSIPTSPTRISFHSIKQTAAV
T2 sequence (P24387 whole entry): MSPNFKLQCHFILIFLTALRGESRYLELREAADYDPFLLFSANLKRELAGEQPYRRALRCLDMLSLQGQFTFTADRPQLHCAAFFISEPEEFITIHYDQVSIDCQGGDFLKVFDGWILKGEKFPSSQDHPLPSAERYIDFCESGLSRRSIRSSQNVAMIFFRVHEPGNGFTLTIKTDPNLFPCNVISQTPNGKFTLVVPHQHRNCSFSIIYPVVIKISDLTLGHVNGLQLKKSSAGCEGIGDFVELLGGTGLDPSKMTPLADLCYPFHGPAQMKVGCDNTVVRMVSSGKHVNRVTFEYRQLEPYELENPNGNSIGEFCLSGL

[3] = target: T2, Corticotropin-releasing factor receptor 2/Corticotropin-releasing factor-binding protein; test: Dose Response confirmation of uHTS hits for small molecule antagonists of the CRF-binding protein and CRF-R2 receptor complex.; assay type: functional; settings: read-out: IC50_Mean
[4] = target: Cytochrome P450 2C19 (Homo sapiens, UniProt P33261); test: Cytochrome panel assay with activity outcomes. Panel member name: p450-cyp2c19 Compounds with AC50 equal or less than 10 uM are considered active; assay type: functional; settings: read-out: AC50
[5] = target: Cytochrome P450 2C9 (Homo sapiens, UniProt P11712)
[6] = target: T3, Heat shock factor protein 1 (Mus musculus, UniProt P38532); test: enhancement of HSF1-driven luciferase signal – cell-based, NIH3T3, luminescence, dose retest, confirmation (AID 435004); assay type: functional;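 further: stress induced by proteasome inhibitor MG132 added 30 min after compound; luciferase reporter driven by HSF1 response element in NIH3T3 cells; actives raise luminescence as potentiators of the MG132 stress response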
T3 sequence (P38532 whole entry): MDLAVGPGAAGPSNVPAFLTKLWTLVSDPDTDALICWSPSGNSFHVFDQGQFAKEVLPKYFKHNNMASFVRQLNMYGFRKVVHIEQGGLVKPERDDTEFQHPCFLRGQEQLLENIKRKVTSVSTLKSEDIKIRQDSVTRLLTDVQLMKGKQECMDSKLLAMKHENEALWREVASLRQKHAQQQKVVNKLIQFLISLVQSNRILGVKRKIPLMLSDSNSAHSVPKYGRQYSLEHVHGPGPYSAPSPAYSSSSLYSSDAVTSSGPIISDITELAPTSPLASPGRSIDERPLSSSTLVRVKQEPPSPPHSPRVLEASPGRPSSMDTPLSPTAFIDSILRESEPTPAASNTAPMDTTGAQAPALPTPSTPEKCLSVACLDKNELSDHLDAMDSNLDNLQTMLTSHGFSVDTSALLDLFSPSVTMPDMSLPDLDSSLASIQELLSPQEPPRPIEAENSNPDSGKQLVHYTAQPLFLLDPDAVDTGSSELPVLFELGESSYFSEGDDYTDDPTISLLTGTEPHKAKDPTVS

[7] = viability of uninfected HEp-2 cells – cell-based, HTS, cytotoxicity control for RSV inhibitor project, dose response (AID 2410); assay type: functional; settings: human respiratory syncytial virus
[8] = target: Paired box protein Pax-8 (Homo sapiens, UniProt Q06710); test: PAX8 transcriptional activity inhibition in RMG-I – RMG-I cells, luciferase, cherry-pick, dose response (AID 687027); assay type: functional, cell-based;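 further: luciferase reporter driven by Pax8 target thyroperoxidase promoter measured by SteadyGlo luminescence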
[9] = Trypanosoma cruzi growth suppression in host cells – NIH3T3 host cells, beta-gal luminescence, confirmation (AID 2044); assay type: functional, cell-based;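 further: intracellular parasites grown in NIH/3T3 mouse fibroblasts as host cells; luminescent beta-galactosidase reporter signal from transgenic T. cruzi replicating inside host cells; inhibitors lower the luminescence signal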
[10] = NIH3T3 cell viability loss – ATP luminescence, mouse fibroblasts, counter-screen, dose response (AID 2010); assay type: functional, cell-based;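 further: cells exposed to compound for about 90 hours before reading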
[11] = target: Cytochrome P450 3A4 (Homo sapiens, UniProt P08684);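 further: CYP3A4 tested as one member of a cytochrome P450 panel screen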
Cytochrome P450 3A4, sequence (P08684 whole entry): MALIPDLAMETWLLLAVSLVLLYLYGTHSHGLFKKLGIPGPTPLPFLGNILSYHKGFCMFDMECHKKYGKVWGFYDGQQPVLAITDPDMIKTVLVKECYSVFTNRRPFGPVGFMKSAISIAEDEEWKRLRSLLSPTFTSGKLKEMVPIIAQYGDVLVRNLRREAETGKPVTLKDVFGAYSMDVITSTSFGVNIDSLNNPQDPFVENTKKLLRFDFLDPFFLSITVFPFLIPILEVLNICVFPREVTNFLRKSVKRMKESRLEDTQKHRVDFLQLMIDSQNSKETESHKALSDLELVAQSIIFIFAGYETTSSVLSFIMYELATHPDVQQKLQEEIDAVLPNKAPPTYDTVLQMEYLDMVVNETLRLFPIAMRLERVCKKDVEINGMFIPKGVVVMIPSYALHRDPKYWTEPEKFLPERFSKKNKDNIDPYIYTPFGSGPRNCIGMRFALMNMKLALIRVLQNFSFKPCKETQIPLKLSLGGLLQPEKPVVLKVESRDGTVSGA

Cytochrome P450 2C9, sequence (P11712 whole entry): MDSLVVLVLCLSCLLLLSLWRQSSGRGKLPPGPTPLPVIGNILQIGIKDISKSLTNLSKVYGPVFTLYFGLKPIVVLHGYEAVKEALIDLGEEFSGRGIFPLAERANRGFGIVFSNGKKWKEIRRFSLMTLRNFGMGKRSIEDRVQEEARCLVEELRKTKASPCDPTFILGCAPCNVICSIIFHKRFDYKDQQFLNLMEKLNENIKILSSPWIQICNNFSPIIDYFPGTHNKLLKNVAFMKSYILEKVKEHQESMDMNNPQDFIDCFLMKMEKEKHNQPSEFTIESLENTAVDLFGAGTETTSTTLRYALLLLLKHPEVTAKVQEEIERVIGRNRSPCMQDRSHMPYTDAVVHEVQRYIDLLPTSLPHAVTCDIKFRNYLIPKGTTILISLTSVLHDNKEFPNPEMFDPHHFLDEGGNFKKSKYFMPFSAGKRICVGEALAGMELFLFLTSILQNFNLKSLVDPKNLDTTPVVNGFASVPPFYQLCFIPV
Paired box protein Pax-8, sequence (Q06710 whole entry): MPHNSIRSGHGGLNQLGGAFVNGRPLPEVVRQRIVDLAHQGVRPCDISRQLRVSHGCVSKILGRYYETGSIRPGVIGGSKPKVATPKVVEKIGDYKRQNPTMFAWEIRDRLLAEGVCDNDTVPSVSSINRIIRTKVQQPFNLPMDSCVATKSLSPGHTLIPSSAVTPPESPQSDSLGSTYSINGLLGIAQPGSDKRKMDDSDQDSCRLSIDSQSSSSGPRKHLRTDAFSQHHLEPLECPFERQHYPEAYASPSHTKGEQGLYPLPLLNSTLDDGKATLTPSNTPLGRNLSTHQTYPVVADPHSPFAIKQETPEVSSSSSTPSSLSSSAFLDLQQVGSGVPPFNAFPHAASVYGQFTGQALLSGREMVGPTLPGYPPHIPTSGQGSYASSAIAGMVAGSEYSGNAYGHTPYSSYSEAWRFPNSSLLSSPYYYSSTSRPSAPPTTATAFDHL
Cytochrome P450 2C19, sequence (P33261 whole entry): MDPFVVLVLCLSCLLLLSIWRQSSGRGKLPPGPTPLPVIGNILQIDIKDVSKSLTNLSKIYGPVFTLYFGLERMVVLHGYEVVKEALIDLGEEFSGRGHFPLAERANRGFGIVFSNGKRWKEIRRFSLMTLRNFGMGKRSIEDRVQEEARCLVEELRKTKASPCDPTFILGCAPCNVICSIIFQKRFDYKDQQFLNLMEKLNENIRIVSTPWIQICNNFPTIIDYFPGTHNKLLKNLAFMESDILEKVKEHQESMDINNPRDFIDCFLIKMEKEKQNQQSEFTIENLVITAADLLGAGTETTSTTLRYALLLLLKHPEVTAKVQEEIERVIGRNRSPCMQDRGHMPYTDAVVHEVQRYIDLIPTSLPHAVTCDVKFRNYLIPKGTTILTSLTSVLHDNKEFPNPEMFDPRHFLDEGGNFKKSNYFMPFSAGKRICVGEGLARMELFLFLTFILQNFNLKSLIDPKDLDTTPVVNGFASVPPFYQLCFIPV

## O=C(Nc1cc2c(oc1=O)CCCC2=O)c1ccc(Cl)cc1
[1]
  AC50: 14.1 µM (inconclusive)

## CN(C)c1c([N+](=O)[O-])ncn1C
[2]
  EC50: > 53 µM (inactive)
[3]
  IC50: > 47.1 µM (inactive)

## CC[C@H](C(=O)c1cccs1)C(O)(C(F)(F)F)C(F)(F)F
[4]
  AC50: 2 µM (inconclusive)
[5]
  AC50: 7.94 µM (inconclusive)

## O=C1C2CC=CCC2C(=O)N1Cc1nnc(-c2ccc(Cl)cc2)o1 (stereo unspecified)
[6]
  EC50: 39.1 µM (active)

## O=[N+]([O-])c1ccc(NC(S)=NC(=NCS(=O)(=O)c2ccccc2)c2ccccc2)cc1
[7]
  CC50: 11.1 µM (active)

## CCOC(=O)C(C)n1cnc2c(oc3ccccc32)c1=O (stereo unspecified)
[4]
  AC50: 31.6 µM (inconclusive)
[5]
  AC50: 28.2 µM (inconclusive)

## Cc1ccc(S(=O)(=O)Nc2ccc3c(c2)C(=O)N([C@@H](C)CO)C[C@@H](C)[C@@H](CN(C)S(=O)(=O)c2ccc(Cl)cc2)OCCCC[C@@H](C)O3)cc1
[8]
  AC50: 10.4 µM (active)

## COc1ccc(C2=NN(C)/C(=N\Cc3ccccc3)SC2)cc1
[2]
  EC50: > 53 µM (inactive)
[3]
  IC50: > 47.1 µM (inactive)

## CC(=O)CSc1ncnc2sc3c(c12)CCC3
[7]
  CC50: 32.7 µM (active)

## CC(C)NC(=O)c1onc(CSc2cccc3ccccc23)c1C(=O)O
[7]
  CC50: 12.6 µM (active)

## Fc1ccc(CCNCc2ccc(Cl)c(Cl)c2)cc1
[9]
  EC50: 0.122 µM (active)
[10]
  EC50: > 30 µM (not active)
[5]
  AC50: 17.8 µM (inconclusive)

## CC(C)Oc1cc(-n2c(=S)[nH]c3ccccc3c2=O)c(Cl)cc1Cl
[1]
  AC50: 12.6 µM (inconclusive)

## C/C=C1\COC(C(=O)NCc2ccccc2)(C(F)(F)F)C=C1C=C(C)C (stereo unspecified)
[6]
  EC50: > 260 µM (inactive)

## COc1ccc2[nH]cc(CCN=C(S)NC3CCCC3)c2c1
[2]
  EC50: > 53 µM (inactive)
[3]
  IC50: > 47.1 µM (inactive)

## COc1ccc(/C=C(\C#N)C(=O)OCC(=O)Nc2ccc(-c3nc4ccc(C)cc4s3)cc2)cc1
[7]
  CC50: 18.6 µM (active)

## Cc1ccc([N+](=O)[O-])cc1NC(=O)CN(C)CCOc1ccccc1
[7]
  CC50: 24.3 µM (active)

## Cn1c(CNC(=O)Nc2ccccc2)nnc1SCc1ccccc1
[1]
  AC50: 25.1 µM (inconclusive)

## CCOC(=O)c1c(C)[nH]c(C)c1S(=O)(=O)N1CCN(c2ccc(F)cc2)CC1
[6]
  EC50: > 260 µM (inactive)

## Cc1cc(C)cc(OCC(=O)O/N=C(\N)Cc2ccc([N+](=O)[O-])cc2)c1
[6]
  EC50: > 260 µM (inactive)

## Cc1ccc(NC2=NC(N)=NC3(CCCC3)N2)c(C)c1
[6]
  EC50: > 260 µM (inactive)

## COc1ccc(NS(=O)(=O)c2cccc(C(=O)N(C)Cc3ccc(SC)cc3)c2)cc1
[6]
  EC50: > 260 µM (inactive)

## COC(=O)C(NC(=O)c1ccc(Cl)cc1)(Nc1nc(C)cs1)C(F)(F)F (stereo unspecified)
[1]
  AC50: 28.2 µM (inconclusive)

## COC(=O)[C@@]1(Cc2ccc(OC)cc2)[C@H]2c3cc(C(=O)N4CCCC4)n(CCN4CCOCC4)c3C[C@H]2CN1C(=O)c1ccccc1
[4]
  AC50: 31.6 µM (inconclusive)
[5]
  AC50: 31.6 µM (inconclusive)

## CCN=C(S)NNC(=O)c1csc2c1CCCC2
[7]
  CC50: 17.9 µM (active)

## N=C(N)NC(=O)c1nc(Cl)c(N)nc1N [AMILORIDE]
[1]
  AC50: 39.8 µM (inconclusive) and 12.6 µM (inconclusive)

## COC(=O)CSC(C(=O)Nc1ccc(C)c(C)c1)c1ccccc1 (stereo unspecified)
[1]
  AC50: 8.91 µM (inconclusive)
[4]
  AC50: 0.398 µM (inconclusive)

## Cc1nn(-c2ccccc2)c(-c2ccccc2)c1C(=O)O
[1]
  AC50: 25.1 µM (inconclusive)
[4]
  AC50: 5.01 µM (inconclusive)
[5]
  AC50: 1.12 µM (inconclusive)

## O=C(CCc1ccc(S(=O)(=O)NCc2ccccc2)cc1)NCc1cccnc1
[8]
  AC50: 41.5 µM (active)

## Oc1ccc(C[C@H]2CNC(=S)N2CC2CCCN2C[C@H](Cc2ccc(O)cc2)N2C[C@H](Cc3ccccc3)N(CC3CCCCCC3)C2=S)cc1 (stereo partly specified)
[8]
  AC50: 9.86 µM (active)

## C=C(C)Cn1c(SCC(=O)O)nnc1-c1ccc(OC)cc1
[6]
  EC50: > 260 µM (inactive)

## CCOC(=O)NC1(C(F)(F)F)C(=O)N(Cc2ccccc2)C2=C1C(=O)CC(C)(C)C2 (stereo unspecified)
[5]
  AC50: 28.2 µM (inconclusive)

## C[C@H](CO)N1C[C@H](C)[C@H](CN(C)Cc2ccc(Cl)c(Cl)c2)OCCCC[C@H](C)Oc2ccc(NC(=O)NC3CCCCC3)cc2C1=O
[8]
  AC50: 11.7 µM (active)

## CCOC(=O)/C(=N/Nc1ccc(Cl)cc1)Sc1nnnn1-c1ccc(C)cc1
[6]
  EC50: > 260 µM (inactive)

## CSCCC(NS(=O)(=O)c1cccc(C(F)(F)F)c1)C(=O)N(C)CCOc1ccc(Cl)cc1 (stereo unspecified)
[6]
  EC50: > 260 µM (inactive)

## Cc1ccc(/C=C/c2nnc(-c3ccc(C)cc3)o2)cc1
[11]
  AC50: 10 µM (inconclusive)
[1]
  AC50: 4.47 µM (inconclusive)
[5]
  AC50: 5.62 µM (inconclusive)

## Cc1ccc(C)c(CSC2=NCCN2C(=O)Cc2ccc([N+](=O)[O-])cc2)c1
[8]
  AC50: 26.3 µM (active)

## Fc1ccccc1OCCCCCCN1CCCC1
[11]
  AC50: 17.8 µM (inconclusive)
[1]
  AC50: 17.8 µM (inconclusive)
[4]
  AC50: 39.8 µM (inconclusive)
[5]
  AC50: 39.8 µM (inconclusive)

## Cc1ccc(C2CC(C(F)F)n3ncc(C(=O)Nc4c(C)nn(Cc5c(F)cccc5Cl)c4C)c3N2)cc1 (stereo unspecified)
[7]
  CC50: 19.9 µM (active)

## COc1ccc(NC(=O)N2CC[C@@]3(CCCN(C(=O)c4ccc(OC)cc4)C3)C2)cc1
[1]
  AC50: 25.1 µM (inconclusive)
[5]
  AC50: 12.6 µM (inconclusive)

## N#Cc1nc(NCC(F)F)nc(Nc2cc(F)cc(F)c2)n1
[8]
  AC50: 5.01 µM (active)

## COc1ccc2nc(-c3ccccc3)cc(OC)c2c1
[7]
  CC50: > 50 µM (active)

## O=C(COC(=O)C1CCN(S(=O)(=O)c2cccc3cccnc23)CC1)c1ccc([N+](=O)[O-])cc1
[6]
  EC50: > 260 µM (inactive)

## Cn1c(=O)c(CCc2ccccc2)nc2cnc(Nc3ccccc3)nc21
[11]
  AC50: 12.6 µM (inconclusive)
[1]
  AC50: 1.26 µM (inconclusive)
[5]
  AC50: 10 µM (inconclusive)

## CC(C)(C)c1ccc(C(=O)Nc2ccc(S(N)(=O)=O)cc2)cc1
[7]
  CC50: 20.1 µM (active)

## Clc1ccc(OCCn2c(-c3ccco3)nc3ccccc32)cc1
[6]
  EC50: 12 µM (active)

## OC[C@@H](O)C1OC2N=C(S)OC2C1O (stereo partly specified)
[6]
  EC50: > 260 µM (inactive)

## Cc1ccc(CS(=O)(=O)CCC(=O)NCc2cccs2)cc1
[1]
  AC50: 15.8 µM (inconclusive)
[5]
  AC50: 5.01 µM (inconclusive)

## COc1cccc(CNC(=O)Cn2nc(C)c([N+](=O)[O-])c2C)c1
[6]
  EC50: > 260 µM (inactive)

## CCOC(=O)COc1cc(OCC(=O)OCC)c2c(=O)cc(-c3ccccc3)oc2c1
[1]
  AC50: 15.8 µM (inconclusive)

## COc1cc(-c2cnc3c(NC=O)cc(-c4ccccc4)cn23)cc(OC)c1OC
[8]
  AC50: 2.79 µM (active)

## Cc1nc(SCCOc2ccc(F)cc2)c2ccccc2n1
[6]
  EC50: 38.7 µM (active)
